Reference: patent publication US20240109917A1 (ACTELION PHARMACEUTICALS LTD, priority 2020, published 2024)

Key:
[1] = target: His6-TEV-PDGFRβ (557-1016) (Homo sapiens (Human), UniProt P09619); assay: PDGFRβ HTRF Assay; type: biochemical; conditions: read-out: PDGFR HTRF IC50
Summary of the method: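 HTRF KinEASE-TK readout (665/620 nm ratio) of TK-biotin substrate phosphorylation by His-tagged PDGFRβ kinase domain. Enzyme and inhibitor preincubated 30 min, then ATP/substrate added for 3 h at room temperature before 60 min EDTA quench/detection.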

[2] = target: Tb-labeled inactive PDGFRβ (Homo sapiens (Human), UniProt P09619); assay: PDGFRβ LanthaScreen Assay; type: binding; conditions: read-out: PDGFR Lantha IC50
Sequence of Tb-labeled inactive PDGFRβ (P09619 33-1106): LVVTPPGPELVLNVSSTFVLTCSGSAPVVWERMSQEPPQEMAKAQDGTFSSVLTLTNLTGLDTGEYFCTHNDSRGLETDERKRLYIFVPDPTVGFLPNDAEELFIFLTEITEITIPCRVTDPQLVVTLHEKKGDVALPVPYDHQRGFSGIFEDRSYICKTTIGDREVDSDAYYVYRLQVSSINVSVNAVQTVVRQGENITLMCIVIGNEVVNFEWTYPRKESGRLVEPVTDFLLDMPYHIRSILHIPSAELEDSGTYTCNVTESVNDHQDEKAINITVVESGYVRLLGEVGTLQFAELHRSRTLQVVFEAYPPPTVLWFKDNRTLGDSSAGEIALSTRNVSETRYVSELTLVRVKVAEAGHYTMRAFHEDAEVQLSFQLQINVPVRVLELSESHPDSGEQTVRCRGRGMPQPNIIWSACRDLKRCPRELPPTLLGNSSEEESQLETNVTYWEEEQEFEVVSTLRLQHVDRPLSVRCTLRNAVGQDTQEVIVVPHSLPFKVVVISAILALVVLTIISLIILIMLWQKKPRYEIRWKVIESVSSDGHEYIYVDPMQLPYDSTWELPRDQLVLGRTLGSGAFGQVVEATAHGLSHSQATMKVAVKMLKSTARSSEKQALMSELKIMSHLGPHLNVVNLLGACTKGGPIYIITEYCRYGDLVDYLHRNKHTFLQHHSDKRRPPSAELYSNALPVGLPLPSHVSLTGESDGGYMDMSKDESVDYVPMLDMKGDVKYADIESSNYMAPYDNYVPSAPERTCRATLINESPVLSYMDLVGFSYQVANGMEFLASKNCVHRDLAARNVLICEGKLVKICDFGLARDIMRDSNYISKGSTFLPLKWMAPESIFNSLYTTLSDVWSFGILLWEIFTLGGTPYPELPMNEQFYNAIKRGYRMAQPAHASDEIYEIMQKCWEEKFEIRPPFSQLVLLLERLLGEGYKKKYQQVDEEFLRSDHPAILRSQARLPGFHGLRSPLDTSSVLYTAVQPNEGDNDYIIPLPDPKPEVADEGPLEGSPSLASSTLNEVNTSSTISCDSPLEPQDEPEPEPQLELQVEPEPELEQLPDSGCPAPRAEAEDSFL

Sequence of His6-TEV-PDGFRβ (557-1016) (P09619 557-1016): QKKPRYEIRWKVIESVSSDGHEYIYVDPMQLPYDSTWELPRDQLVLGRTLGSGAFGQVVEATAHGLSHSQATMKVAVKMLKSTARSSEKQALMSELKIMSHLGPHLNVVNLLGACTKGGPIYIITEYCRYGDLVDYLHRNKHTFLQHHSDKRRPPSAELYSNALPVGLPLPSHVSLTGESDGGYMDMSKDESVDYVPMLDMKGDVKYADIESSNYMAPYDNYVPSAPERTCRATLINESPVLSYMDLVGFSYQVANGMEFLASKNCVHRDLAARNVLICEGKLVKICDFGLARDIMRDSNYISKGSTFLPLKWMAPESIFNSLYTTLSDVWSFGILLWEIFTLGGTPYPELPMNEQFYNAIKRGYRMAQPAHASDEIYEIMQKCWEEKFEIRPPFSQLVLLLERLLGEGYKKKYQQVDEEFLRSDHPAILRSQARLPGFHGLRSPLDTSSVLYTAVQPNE

| Compound | IC50 [1] [nM] | IC50 [2] [nM] |
| --- | --- | --- |
| Cc1ncc(NC(=O)CN2C[C@@H](C)O[C@H](C)C2)cc1NC(=O)c1cnn2cc(-c3cnn(C)c3C)sc12 (relative stereo) [Example 433, 2-(1,5-Dimethyl-1H-pyrazol-4-yl)-N-(5-(2-(trans-2,6-dimethylmorpholino)acetamido)-2-methylpyridin-3-yl)pyrazolo[5,1-b]thiazole-7-carboxamide] | 0.5 | 4 |
| Cc1ncc(NC(=O)CN2CC(C)(C)C2)cc1NC(=O)c1cnn2cc(-c3nn(C)nc3C)sc12 [Example 445, 2-(2,5-Dimethyl-2H-1,2,3-triazol-4-yl)-N-(5-(2-(3,3-dimethylazetidin-1-yl)acetamido)-2-methylpyridin-3-yl)pyrazolo[5,1-b]thiazole-7-carboxamide] | 0.3 | 2.1 |
| Cc1ncc(NC(=O)CN2CCC2)cc1NC(=O)c1cnn2cc(-c3cnn4c3OCCC4)sc12 [Example 412, N-(5-(2-(azetidin-1-yl)acetamido)-2-methylpyridin-3-yl)-2-(6,7-dihydro-5H-pyrazolo[5,1-b][1,3]oxazin-3-yl)pyrazolo[5,1-b]thiazole-7-carboxamide] | 1.4 | 34.6 |
| Cc1ncc(C(=O)NCC2CCCN2C)cc1NC(=O)c1cnn2cc(-c3cnn4c3OCCC4)sc12 (centres unmarked) [Example 470, 2-(6,7-dihydro-5H-pyrazolo[5,1-b][1,3]oxazin-3-yl)-N-(2-methyl-5-(((1-methylpyrrolidin-2-yl)methyl)carbamoyl)pyridin-3-yl)pyrazolo[5,1-b]thiazole-7-carboxamide] | 0.5 | 6.8 |
| Cc1ncc(NC(=O)CN2CC(C)(C)C2)cc1NC(=O)c1cnn2cc(-c3cnc4n3CCOC4)sc12 [Example 415, 2-(5,6-dihydro-8H-imidazo[2,1-c][1,4]oxazin-3-yl)-N-(5-(2-(3,3-dimethylazetidin-1-yl)acetamido)-2-methylpyridin-3-yl)pyrazolo[5,1-b]thiazole-7-carboxamide] | 0.5 | 6.6 |
| Cc1ncc(C(=O)NCCN2CCCC23CCC3)cc1NC(=O)c1cnn2cc(-c3cnn4c3OCCC4)sc12 [Example 478, N-(5-((2-(5-azaspiro[3.4]octan-5-yl)ethyl)carbamoyl)-2-methylpyridin-3-yl)-2-(6,7-dihydro-5H-pyrazolo[5,1-b][1,3]oxazin-3-yl)pyrazolo[5,1-b]thiazole-7-carboxamide] | 0.3 | 3 |
| Cc1ncc(NC(=O)CN2C[C@@H](C)O[C@H](C)C2)cc1NC(=O)c1cnn2cc(-c3cn(C)nc3C)sc12 [Example 431] | 0.5 | 3.5 |
| COC1(C)CN(CC(=O)Nc2cnc(C)c(NC(=O)c3cnn4cc(-c5cn(C)nc5C)sc34)c2)C1 [Example 442, 2-(1,3-Dimethyl-1H-pyrazol-4-yl)-N-(5-(2-(3-methoxy-3-methylazetidin-1-yl)acetamido)-2-methylpyridin-3-yl)pyrazolo[5,1-b]thiazole-7-carboxamide] | 0.3 | 3.1 |
| COCCn1cc(-c2cn3ncc(C(=O)Nc4cc(NC(=O)CCC5CCCN5C)cnc4C)c3s2)cn1 (centres unmarked) [Example 462, 2-(1-(2-methoxyethyl)-1H-pyrazol-4-yl)-N-(2-methyl-5-(3-(1-methylpyrrolidin-2-yl)propanamido)pyridin-3-yl)pyrazolo[5,1-b]thiazole-7-carboxamide] | 0.7 | 15.3 |
| Cc1ncc(NC(=O)CC2CNC2)cc1NC(=O)c1cnn2cc(-c3cnn4c3CCC4)sc12 [Example 426, N-(5-(2-(azetidin-3-yl)acetamido)-2-methylpyridin-3-yl)-2-(5,6-dihydro-4H-pyrrolo[1,2-b]pyrazol-3-yl)pyrazolo[5,1-b]thiazole-7-carboxamide] | 11.5 | 482 |
| Cc1ncc(NC(=O)CN2CCC[C@H]2C)cc1NC(=O)c1cnn2cc(-c3nn(C)nc3C)sc12 [Example 443, (R)-2-(2,5-dimethyl-2H-1,2,3-triazol-4-yl)-N-(2-methyl-5-(2-(2-methylpyrrolidin-1-yl)acetamido)pyridin-3-yl)pyrazolo[5,1-b]thiazole-7-carboxamide] | 0.4 | 4.4 |
| Cc1ncc(NC(=O)CN2CC(C)(C)C2)cc1NC(=O)c1cnn2cc(-c3c(C)nn(C4COC4)c3C)sc12 [Example 425, 2-(3,5-dimethyl-1-(oxetan-3-yl)-1H-pyrazol-4-yl)-N-(5-(2-(3,3-dimethylazetidin-1-yl)acetamido)-2-methylpyridin-3-yl)pyrazolo[5,1-b]thiazole-7-carboxamide] | 0.7 | 6.8 |
| Cc1ncc(NC(=O)CN2CCCC2(C)C)cc1NC(=O)c1cnn2cc(-c3cccn(CCF)c3=O)sc12 [Example 449, N-(5-(2-(2,2-dimethylpyrrolidin-1-yl)acetamido)-2-methylpyridin-3-yl)-2-(1-(2-fluoroethyl)-2-oxo-1,2-dihydropyridin-3-yl)pyrazolo[5,1-b]thiazole-7-carboxamide] | 0.7 | 9.1 |
| Cc1cc(C(=O)NCCN2CCCC23CC3)sc1NC(=O)c1cnn2cc(-c3cnn(C)c3)sc12 [Example 37, N-(5-((2-(4-azaspiro[2.4]heptan-4-yl)ethyl)carbamoyl)-3-methylthiophen-2-yl)-2-(1-methyl-1H-pyrazol-4-yl)pyrazolo[5,1-b]thiazole-7-carboxamide] | 22.8 | 892 |
| Cc1ncc(NC(=O)CN2CCC(C)C2)cc1NC(=O)c1cnn2cc(-c3cn(C)nc3C)sc12 (centres unmarked) [Example 446, 2-(1,3-Dimethyl-1H-pyrazol-4-yl)-N-(2-methyl-5-(2-(3-methylpyrrolidin-1-yl)acetamido)pyridin-3-yl)pyrazolo[5,1-b]thiazole-7-carboxamide] | 0.3 | 3.5 |
| COc1ccncc1-c1cn2ncc(C(=O)Nc3cc(NC(=O)CN4CC(C)(C)C4)cnc3C)c2s1 [Example 40, N-(5-(2-(3,3-dimethylazetidin-1-yl)acetamido)-2-methylpyridin-3-yl)-2-(4-methoxypyridin-3-yl)pyrazolo[5,1-b]thiazole-7-carboxamide] | 0.27 | 1.7 |
| COCCn1cc(-c2cn3ncc(C(=O)Nc4cc(NC(=O)CCN5CCCC5(C)C)cnc4C)c3s2)cn1 [Example 41, N-(5-(3-(2,2-dimethylpyrrolidin-1-yl)propanamido)-2-methylpyridin-3-yl)-2-(1-(2-methoxyethyl)-1H-pyrazol-4-yl)pyrazolo[5,1-b]thiazole-7-carboxamide] | 0.43 | 4.7 |
| Cc1ncc(NC(=O)CN2CC(C)(C)C2)cc1NC(=O)c1cnn2cc(-c3cnn4c3OCCC4)sc12 [Example 39, 2-(6,7-dihydro-5H-pyrazolo[5,1-b][1,3]oxazin-3-yl)-N-(5-(2-(3,3-dimethylazetidin-1-yl)acetamido)-2-methylpyridin-3-yl)pyrazolo[5,1-b]thiazole-7-carboxamide] | 0.3 | 1.9 |
| COCCn1cc(-c2cn3ncc(C(=O)Nc4cc(NC(=O)C[C@@H]5CCN(C(C)C)C5)cnc4C)c3s2)cn1 [Example 466, (S)—N-(5-(2-(1-isopropylpyrrolidin-3-yl)acetamido)-2-methylpyridin-3-yl)-2-(1-(2-methoxyethyl)-1H-pyrazol-4-yl)pyrazolo[5,1-b]thiazole-7-carboxamide] | 9 | 261 |
| Cc1ncc(NC(=O)CC2CN(C)C2)cc1NC(=O)c1cnn2cc(-c3cnn4c3CCC4)sc12 [Example 468, 2-(5,6-dihydro-4H-pyrrolo[1,2-b]pyrazol-3-yl)-N-(2-methyl-5-(2-(1-methylazetidin-3-yl)acetamido)pyridin-3-yl)pyrazolo[5,1-b]thiazole-7-carboxamide] | 2.1 | 149 |
| CCCNCC(=O)Nc1cnc(C)c(NC(=O)c2cnn3cc(-c4cnn5c4OCCC5)sc23)c1 [Example 455, 2-(6,7-dihydro-5H-pyrazolo[5,1-b][1,3]oxazin-3-yl)-N-(2-methyl-5-(2-(propylamino)acetamido)pyridin-3-yl)pyrazolo[5,1-b]thiazole-7-carboxamide] | 0.6 | 3.3 |
| Cc1ncc(NC(=O)CN2CCC23CCC3)cc1NC(=O)c1cnn2cc(-c3cnn4c3OCCC4)sc12 [Example 408, N-(5-(2-(1-azaspiro[3.3]heptan-1-yl)acetamido)-2-methylpyridin-3-yl)-2-(6,7-dihydro-5H-pyrazolo[5,1-b][1,3]oxazin-3-yl)pyrazolo[5,1-b]thiazole-7-carboxamide] | 0.2 | 1.8 |
| Cc1ncc(NC(=O)CN2CCC[C@@H]2C)cc1NC(=O)c1cnn2cc(-c3cnn4c3COCC4)sc12 [Example 473, (S)-2-(6,7-dihydro-4H-pyrazolo[5,1-c][1,4]oxazin-3-yl)-N-(2-methyl-5-(2-(2-methylpyrrolidin-1-yl)acetamido)pyridin-3-yl)pyrazolo[5,1-b]thiazole-7-carboxamide] | 0.4 | 4.8 |
| Cc1ncc(NC(=O)CC2CN(C)C2)cc1NC(=O)c1cnn2cc(-c3cnn4c3CCC4)sc12 [Example 427, 2-(5,6-dihydro-4H-pyrrolo[1,2-b]pyrazol-3-yl)-N-(2-methyl-5-(2-(1-methylazetidin-3-yl)acetamido)pyridin-3-yl)pyrazolo[5,1-b]thiazole-7-carboxamide] | 2.1 | 150 |
| Cc1ncc(C(=O)NCCN2CCCC23CCC3)cc1NC(=O)c1cnn2cc(-c3cnn4c3COCC4)sc12 [Example 472, N-(5-((2-(5-azaspiro[3.4]octan-5-yl)ethyl)carbamoyl)-2-methylpyridin-3-yl)-2-(6,7-dihydro-4H-pyrazolo[5,1-c][1,4]oxazin-3-yl)pyrazolo[5,1-b]thiazole-7-carboxamide] | 0.4 | 2.8 |
